The text below walks through data of patent US20120058133A1, “INHIBITION OF TRNA SYNTHETASES AND THERAPEUTIC APPLICATIONS THEREOF” (President and Fellows of Harvard College, priority 2009, published 2012).

Assay [1] deals with mouse embryo fibroblasts (MEFs). Description: ECM gene expression and protein production in MEFs. It is filed as cell-based. Here is the method:
FIG. 26C. Proline rescues both HF stimulated and HF inhibited gene expression. MEFs were treated with or without HF (50 nM) and/or Proline (2 mM) for 4 hours (CHOP, S100A4) or 24 hours (CoLIA1, ColIA2). DMSO was used as vehicle control. Changes in mRNA levels are expressed as fold-change relative to control and normalized to expression of TBP. Error bars reflect standard deviation of determinations from plates of cells treated in triplicate, confidence interval (p-value) for the effect of HF alone versus HF+Pro was determined using a two-tailed Student's t test. Data are representative of two separate experiments.
FIG. 26D. HF-inhibition of collagen production is rescued by proline and doesn't affect overall protein synthesis. Cells were pre-incubated with HF with or without proline for 4 hours, and ^35S-methionine and HF with or without proline was added. 24 hours later, conditioned medium and total cell lysate was harvested. New production of Type I procollagen was measured in conditioned medium by Western blot, and bands quantitated using Image J quantitation software. The original blot is shown in FIG. 27; total protein synthesis was measured as TCA-precipitable ^35S in a scintillation counter. Error bars reflect standard deviation of triplicate determinations.
FIG. 33. Proline rescues HF-suppression of ECM protein production. MEFs were incubated for 4 hours in HF with or without 2 mM Pro, to measure new collagen production in conditioned medium (cells were washed into fresh DMEM/0.2% FBS with fresh HF and proline re-added, and either conditioned medium (for Type I procollagen) or total cell lysate (for fibronectin, […]) harvested twenty four hours later. Protein levels were assayed by Western blot.
Q-PCR was performed using the Roche LightCycle UPR system, using the following primers and probes: […]

Assay [2] has as its system GCN2 phosphorylation / AAR pathway. Description: AAR pathway activation in MEFs (GCN2, eIF2a phosphorylation, CHOP). In kind it is cell-based, mouse. Here is the method: FIG. 24. Activation of the AAR in cells by HF/FF occurs through inhibition of proline utilization. FIG. 24A is a gel showing HF-induction of the AAR pathway is reversed by proline. MEFs were treated with the indicated concentration of HF or FF in the presence or absence of 2 mM Proline for 2 hours (left) or treated with 1 μM borrelidin in the presence or absence of 2 mM Threonine for 2 hours (right). Cells were lysed and assessed by anti-pGCN2 or anti-GCN2 Western blot. Data are representative of three separate experiments.
FIG. 24B is a gel showing HF induction of eIF2a phosphorylation and CHOP expression is GCN2 dependent. Wild Type or GCN2−/− MEFs were treated with 50 nM HF in the presence or absence of 2 mM proline. Cells were lysed at 2 hours post-HF addition (peIF2a) or 6 hours post-HF addition (CHOP) and analyzed for phosphoprotein or total protein levels by Western blot.

In assay [3] the test system is SV-MES mesangial cells. Nature of the assay: AAR activation in SV-MES mesangial (fibroblastic) cells. As to conditions: 2 hours. It is filed as cell-based. Here is the method: FIG. 11. HF induces a stress response in fibroblasts. SV-MES mesangial cells were stimulated for 2 hours with DMSO, 20 nM MAZ1310, or 20 nM HF. Whole cell lysates were analyzed for expression of phosphorylated or total eIF2α by western blotting.
Duplicate cell samples are shown. […] Activated GCN2 phosphorylates eif2alpha at Ser 51; therefore, this is an expected downstream outcome of AAR activation.

The test system of assay [4] is adjuvant-driven EAE in wild-type B6 mice. Description: Adjuvant-driven EAE (MOG33-55 immunization). It is filed as in vivo, mouse. An excerpt: The ability of systemic HF treatment to block IL-17 expression and associated autoimmune inflammation in vivo was examined using two distinct models of experimental autoimmune encephalomyelitis (EAE). […] The second model, a passive model of EAE induction, is initiated by the transfer of myelin proteolipid protein (PLP)-reactive T cells into lymphopenic hosts.
Adjuvant-driven EAE was induced in 8 week-old wild-type B6 mice purchased from Charles River laboratories (Kingston, N.Y.) by subcutaneous injection of […] peptide emulsified in Incomplete Freund's Adjuvant (IFA) plus 5 mg/ml heat-killed M. tuburculosis (BD Biosciences) in both dorsal flanks as described in Veldhoen et al. (Nat. Immunol. 7(11):1151-1156, 2006).
Mice were injected daily with HF (2 μg/mouse) or vehicle control (DMSO) i.p. Clinical signs of EAE were assessed according to the following score: 0, no signs of disease; 1, flaccid tail; 2, weak gait/hind limb paresis; 3, hind limb paralysis; 4, tetraplegia; 5, moribund. Cytokine production during EAE was determined either in peripheral T cells isolated from spleen or lymph nodes of mice prior to disease onset (day 6-10) or in mononuclear cells isolated from the brain and spinal cords of mice with severe disease (clinical score ≧2) between days 15-20. Briefly, splenocytes were stained for intracellular cytokines following erythrocyte lysis with ammonium chloride buffer. T cells were isolated from brain and spinal cords of mice with active EAE following perfusion with cold PBS. Minced CNS tissue was digested with liberase C1 (0.33 mg/ml, Roche Diagnostics) or collagenase D (10 mg/ml, Roche Diagnostics) at 37° C. for 30-45 minutes. Cell suspensions were passed through 70 μm cell strainers (VWR) and fractionated by 70%/30% Percoll gradient centrifugation. Mononuclear cells were collected from the interphase, washed and used for intracellular cytokine analysis.

The test system of assay [5] is dermal ECM deposition. The following applies: Pines et al. 2003; cited from earlier work.
[6] abbreviates: 2 μg HF daily, ˜0.1 mg/kg, i.p.

Entries after “also recorded” stand apart in the source; their conditions may differ.

For `O=C(CC1NCCCC1O)Cn1cnc2cc(Br)c(Cl)cc2c1=O` (racemic) [HF, halofuginone], the “mRNA levels of ColIA1, ColIA2, and S100A4” value in assay [1] (50 nM HF, 4 or 24 hours) is “inhibited mRNA levels”. Further, the “CHOP mRNA expression” value in assay [1] (50 nM HF, 4 hours) was “stimulated”. Besides, the “reversal of HF effects on ECM genes and proteins by proline” value in assay [1] (2 mM proline) is recorded as “reversed by the addition of 2 mM proline”. In assay [1] (24 hours), the production of fibronectin result is “dramatically inhibited” and the “production of secreted Type I procollagen protein” value is reported as “dramatically inhibited”. The “eIF2-alpha phosphorylation and CHOP induction in wild type vs GCN2−/− fibroblasts” value in assay [2] (50 nM HF) is reported as “absent in GCN2−/− fibroblasts”. For the same compound, the “reversal of GCN2 phosphorylation by cognate amino acid” value in assay [2] (2 mM proline or 2 mM threonine) is “abrogated by the addition of 2 mM proline”. For the same compound, the “GCN2 phosphorylation in fibroblasts” value in assay [2] (2 hours, borrelidin 1 μM) is recorded as “Stimulation of GCN2 phosphorylation”. The “eIF2α phosphorylation in cultured fibroblasts” value in assay [3] (20 nM HF) is reported as “increased eIF2α phosphorylation”. In assay [3] (20 nM), the “GCN2 Thr898 phosphorylation” value is on record as “activation of GCN2 phosphorylation”. In assay [4] (2 μg HF daily i.p.), the “CD4+ T cell infiltrates into the CNS” value is recorded as “overall reduction”; the “IFNγ expression in the same T cell populations” value is on record as “did not affect IFNγ expression; also recorded: had no effect on the number of IFNγ T-cells”; the “T cell-derived IL-17 expression in lymph nodes and CNS tissue” value is on record as “reduction; also recorded: selectively reduced the number of IL-17 expressing T cells”. Also, in assay [4] (setting [6]), the “frequency of disease onset” value is “significantly reduced” and the “severity of adjuvant-driven EAE disease” value was “significantly reduced”. For the same compound, in assay [4] (17 days after immunization with MOG), the “clinical score of mice analysed” value came out at 0. For the same compound, the “clinical score of mice analysed” value in assay [4] (day 18) came out at 0. In addition, in assay [5], the “dermal ECM deposition” value is reported as “potently reduces dermal extracellular matrix (ECM) deposition; also recorded: reduces excess dermal ECM deposition”.
